Experimental data from patent US20220112225A1, “ANANDAMIDE COMPOUNDS” (priority 2019, published 2022).

Biological target: T1, hMfsd2a (Homo sapiens, UniProt Q8NA29)
T1 construct: expressed in transfected cells; host or cells: HEK293
T1 sequence (Q8NA29 1-530 isoform Q8NA29-2): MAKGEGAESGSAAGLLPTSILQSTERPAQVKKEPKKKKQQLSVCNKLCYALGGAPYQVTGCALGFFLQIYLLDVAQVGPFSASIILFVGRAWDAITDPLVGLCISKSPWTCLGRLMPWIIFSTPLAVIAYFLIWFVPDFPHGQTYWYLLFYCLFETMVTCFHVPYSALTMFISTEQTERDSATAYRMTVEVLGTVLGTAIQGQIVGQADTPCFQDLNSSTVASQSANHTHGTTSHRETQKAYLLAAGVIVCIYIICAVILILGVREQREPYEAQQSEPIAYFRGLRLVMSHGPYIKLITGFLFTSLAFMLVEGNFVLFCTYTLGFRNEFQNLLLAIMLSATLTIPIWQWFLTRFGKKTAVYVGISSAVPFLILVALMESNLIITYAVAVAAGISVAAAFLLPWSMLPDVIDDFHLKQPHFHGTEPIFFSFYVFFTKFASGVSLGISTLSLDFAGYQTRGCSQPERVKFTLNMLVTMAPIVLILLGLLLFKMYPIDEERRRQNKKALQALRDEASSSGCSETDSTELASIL
Experiment: In vitro Mfsd2a transport, thin layer chromatography (TLC) analysis
Type: cell-based
Details: transfected HEK293 cells, 50 μM test compound, 1 hour, iodine and cupric acetate stain
Method: The assay was conducted in a low throughput 6-well format with HEK293 cells prepared and then transfected in duplicate wells with plasmids containing either the wildtype (WT) version of hMfsd2a, the D97A mutant version, or an empty vector as control. Uptake into the ceils was assessed by both thin-layer chromatography (TLC) and ultrahigh performance liquid chromatography hyphenated mass spectrometry.
HEK293 cells were seeded at 6.25×10^5 per 6-well in 2 mL of DMEM with 10% FBS and 1% penicillin-streptomycin (P/S) media (Sigma) and incubated overnight at 37° C. in 5% CO2. Cells were checked for confluency the next morning. On a per well basis the following lipid mix was generated, 6 μL of Lipofectamine 2000 was added dropwise to 200 μL of OptiMEM, this was left to stand for 5 minutes at room temperature (RT). 1 μg of hMfsd2a WT, D97A or empty plasmid was prepared in 200 μL of OptiMEM as appropriate for each well; the Lipofectamine 2000 in OptiMEM solution was then added dropwise to a total volume of 400 μL (this can be scaled to support the number of wells/plates to be assayed). This transfection preparation was then incubated at RT for 20 minutes. DMEM with 10% FBS and no P/S media was warmed to 37° C., the HEK293 plate media was changed and the cells washed carefully with 1 mL of the warmed DMEM with 10% FBS no P/S media, 1.6 mL of the warmed DMEM with 10% FBS no P/S media was then added to each well. 400 μL of the transfection preparation was then added dropwise to each well as appropriate and the plate was gently swirled in a circular motion. The plate was then incubated overnight at 37° C. in 5% CO2.
Compound Incubation and Preparation of Analysis Samples Compound stock solutions were prepared in a 12% BSA in PBS solution such that a 40 μL spike into 2 ml, of plain DMEM would yield a concentration of 50 μM of test compound (the compound treated media). Remaining compound stock solution in 12% BSA in PBS was frozen at −20° C. to allow for media stability testing. The HEK293 6-well plate was removed from the incubator and the wells gently rinsed with 1 mL of plain DMEM that had been prewarmed to 37° C. 2 mL of the compound treated media was then added to each well. A 100 μL sample of the compound treated media was sampled to represent a T=0 h sample; 5 μL of this sample (the remainder was reserved and frozen in case of re-analysis being required) was diluted with 45 μL of DMEM and crashed with 50 μL MeCN in a 96-well plate which was sealed and kept on ice. The HEK293 6-well plate was then incubated at 37° C. in 5% CO2 for 1 hour, the plate was then removed from the incubator and a 100 μL sample of media taken from each well to represent a T=1 h sample; 5 μL of this sample (the remainder was reserved and frozen in case of re-analysis being required) was diluted with 45 μL of DMEM and crashed with 50 μL MeCN into the 96-well plate which was re-sealed and stored at −20° C. The remaining media was then removed from the HEK293 6-well plate, the wells were gently rinsed twice with 1 mL of 0.5% BSA in DMEM, the media was then removed and the 6-well plate allowed to dry completely at RT. 1 ml of 3:2 Hexane:Isopropanol (HIP) was added to each well in a fume cupboard and the plate allowed to stand for 30 minutes at RT without shaking. The HIP solution was then transferred to 2 mL Eppendorf tubes, and the process was repeated with a second 1 mL aliquot of HIP and the two aliquots combined. The HIP samples were then dried down under a nitrogen stream.
Silica gel plates were prepared in a fume cupboard by initially drawing a line 1.5 cm from the bottom edge of the plate and then drawing sample lanes with a width of 1 cm and a separation of 0.5 cm between lanes. TLC buffer for phospholipids was prepared as a 31:62:7 solvent mix of Methanol:Chloroform:Ammonium Hydroxide. Plates were pre-run in a humid chamber containing 200 mL of the TLC buffer until the solvent front was 1.5 cm from the plate edge, the plate was then allowed to dry. […]

2-(5Z,8Z,11Z,14Z)-icosa-5,8,11,14-tetraenamidoethyl (trimethylammonio) ethylphosphate [Compound 3]
Transport via Mfsd2a: TLC band intensity in WT cells compared with D97A mutant Mfsd2a and/or empty vector cells: transported via Mfsd2a
